Laboratory results as given in PubChem BioAssay AID1208 (EPA DSSTox, 2008).
Calls of active or inactive are those of the source.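 How the source made its calls: active means at least one rat sex group has a carcinogenic potency value and tumor site recorded; inconclusive means only rat studies were judged inadequate by the national testing program; inactive means no potency or tumor site, with negative rat experiments.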

Test system: rat chronic carcinogenicity bioassay, TD50
Experiment: DSSTox (CPDBAS) Carcinogenic Potency Database Summary Rat Bioassay Results
Conditions: for outcome: TD50_Rat_Note: no positive results; for Potency: hits give low values
Procedure, shortened: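 The activity score maps log10(1/TD50_Rat_mmol) linearly onto 1–100; actives without a computed TD50, such as mixtures, receive 50. Source data are chronic rat carcinogenicity tests, using the most positive experiment for each sex.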

[1] = TargetSites_Rat_Female: no positive results
[2] = TD50_Rat_Note: TD50 is harmonic mean of more than one positive test, TargetSites_Rat_Female: mammary gland
[3] = TD50_Rat_Note: TD50 is harmonic mean of more than one positive test, TargetSites_Rat_Female: liver
[4] = TargetSites_Rat_Female: mammary gland
[5] = TD50_Rat_Note: TD50 is harmonic mean of more than one positive test, TargetSites_Rat_Female: liver, lung

**Q.** Which outcome [1] does the source give for `O=C(NCC1CCCCN1)c1cc(OCC(F)(F)F)ccc1OCC(F)(F)F` (configuration not stated) here?
**A.** The outcome was “inactive; no positive results”.

**Q.** For `C[C@@H]1CC2(O[C@@H]2C)C(=O)O[C@@H]2CCN(C)C/C=C(/COC(=O)[C@]1(C)O)C2=O` (some centres not stated), which Potency (TD50_Rat_Note: TD50 is harmonic mean of more than one positive test, TargetSites_Rat_Female: liver, vascular system) is on record?
**A.** The Potency was 0.922 mg/kg/day.

**Q.** Which outcome [1] does the source give for `CC(C)(CO)CCCCCCC(C)(C)CO` here?
**A.** The outcome was “inactive; no positive results”.

**Q.** Which Potency [1] does the source give for `Nc1nc(N)nc(N)n1` here?
**A.** Its Potency is 735 mg/kg/day.

**Q.** With `Nc1cc([N+](=O)[O-])ccc1O` as the compound, how does the Potency [1] read?
**A.** Its Potency is 839 mg/kg/day.

**Q.** `CCNC(=O)N(CCN(C)C)N=O` was tested. Which Potency (TargetSites_Rat_Female: mammary gland, uterus) did it give?
**A.** The Potency was 0.704 mg/kg/day.

**Q.** For `COc1cc(/C=C/C(=O)CC(=O)/C=C/c2ccc(O)c(OC)c2)ccc1O`, which outcome is on record?
**A.** The outcome was “inactive; no positive results”.

**Q.** What about the outcome [1] of the same compound?
**A.** The outcome was “inactive; no positive results”.

**Q.** For `C=C(Cl)CSC(=S)N(CC)CC`, which Potency [2] is on record?
**A.** The Potency was 26.1 mg/kg/day.

**Q.** How did the Potency [3] turn out when `O=NN1CCCCCCCCCCCC1` was run?
**A.** Its Potency is 10.9 mg/kg/day.

**Q.** `Cc1ccc(N)cc1N` was tested. Which Potency (TD50_Rat_Note: TD50 is harmonic mean of more than one positive test, TargetSites_Rat_Female: liver, mammary gland) did it give?
**A.** The Potency was 2.47 mg/kg/day.

**Q.** And the Potency?
**A.** Its Potency is 4.42 mg/kg/day.

**Q.** For `O=[N+]([O-])c1ccc(Oc2ccc(Cl)cc2Cl)cc1`, which Potency (TargetSites_Rat_Female: pancreas) is on record?
**A.** Its Potency is 420 mg/kg/day.

**Q.** `FC(F)=C(F)F` was tested. Which Potency (TD50_Rat_Note: TD50 is harmonic mean of more than one positive test, TargetSites_Rat_Female: hematopoietic system, kidney, liver, vascular system) did it give?
**A.** The Potency was 107 mg/kg/day.

**Q.** What does the source list for `ClC=C(Cl)Cl`?
**A.** Potency (TD50_Rat_Note: TD50 is harmonic mean of more than one positive test, TargetSites_Rat_Female: no positive results): 668 mg/kg/day; outcome [1]: inactive; no positive results

**Q.** Which outcome [1] does the source give for `ClC1=C(Cl)[C@]2(Cl)[C@@H]3[C@@H]4C[C@@H]([C@H]5O[C@@H]45)[C@@H]3[C@@]1(Cl)C2(Cl)Cl` here?
**A.** The outcome was “inactive; no positive results”.

**Q.** For `CCCCCCCC/C=C\CCCCCCCC(=O)O`, which outcome [1] is on record?
**A.** Its outcome is “inactive; no positive results”.

**Q.** How did the Potency (TD50_Rat_Note: TD50 is harmonic mean of more than one positive test, TargetSites_Rat_Female: clitoral gland, ear Zymbals gland, large intestine, liver, mammary gland, oral cavity, skin, uterus) turn out when `COc1cc(-c2ccc(N)c(OC)c2)ccc1N` was run?
**A.** Its Potency is 1.04 mg/kg/day.

**Q.** With `Cc1ccc(N)cc1` as the compound, how does the outcome read?
**A.** Its outcome is “inactive; no positive results”.

**Q.** Which Potency [4] does the source give for `Nc1ccc(-c2ccccc2)cc1` here?
**A.** The Potency was 0.98 mg/kg/day.

**Q.** `Cc1ccc(N=C=O)cc1N=C=O` was tested. Which Potency (TD50_Rat_Note: TD50 is harmonic mean of more than one positive test, TargetSites_Rat_Female: liver, mammary gland, pancreas, subcutaneous tissue) did it give?
**A.** Its Potency is 33.7 mg/kg/day.

**Q.** For `ClC1=C(Cl)[C@]2(Cl)[C@@H]3[C@H]4C=CC(C4)[C@@H]3C1(Cl)C2(Cl)Cl`, which outcome [1] is on record?
**A.** Its outcome is “inactive; no positive results”.

**Q.** How did the outcome turn out when `NCCCCCC(=O)O` was run?
**A.** The outcome was “inactive; no positive results”.

**Q.** How did the outcome turn out when `COc1cc(OC)c2c3c(c(=O)oc2c1)CCC3` was run?
**A.** The outcome was “inactive; no positive results”.

**Q.** How did the Potency [2] turn out when `CC(=O)Nc1nc(-c2ccc([N+](=O)[O-])o2)cs1` was run?
**A.** Its Potency is 17.8 mg/kg/day.

**Q.** Which outcome [1] does the source give for `O=C(O)CC[N+](=O)[O-]` here?
**A.** Its outcome is “inactive; no positive results”.

**Q.** `O=C(Nc1ccc([N+](=O)[O-])cc1Cl)c1cc(Cl)ccc1O` was tested. Which outcome [1] did it give?
**A.** The outcome was “inactive; no positive results”.

**Q.** How did the Potency (TD50_Rat_Note: TD50 is harmonic mean of more than one positive test, TargetSites_Rat_Female: liver, uterus) turn out when `O=[N+]([O-])c1ccccc1` was run?
**A.** The Potency was 25.5 mg/kg/day.

**Q.** How did the Potency (TD50_Rat_Note: TD50 is harmonic mean of more than one positive test, TargetSites_Rat_Female: large intestine) turn out when `BrC(Br)Br` was run?
**A.** The Potency was 648 mg/kg/day.

**Q.** How did the outcome [1] turn out when `CN(N=O)c1cccnc1` was run?
**A.** The outcome was “inactive”.

**Q.** With `Nc1cc(Cl)c(-c2cc(Cl)c(N)cc2Cl)cc1Cl` as the compound, how does the outcome [1] read?
**A.** Its outcome is “inactive; no positive results”.

**Q.** For `O=C1CCc2ccccc2O1`, which Potency [1] is on record?
**A.** The Potency was 2970 mg/kg/day.

**Q.** `NC(N)=NC(N)=NCCc1ccccc1` was tested. Which outcome [1] did it give?
**A.** Its outcome is “inactive; no positive results”.

**Q.** Which Potency (TargetSites_Rat_Female: liver) does the source give for `O=NN(CCO)CC(O)CO` (configuration not stated) here?
**A.** The Potency was 5.98 mg/kg/day.

**Q.** For `Cc1cc(C)c(N)cc1C`, which Potency [5] is on record?
**A.** Its Potency is 33.6 mg/kg/day.

**Q.** And the Potency (TD50_Rat_Note: no positive results are statistically significant)?
**A.** The Potency was 98.5 mg/kg/day.

**Q.** For `CS(=O)(=O)c1ccc([C@@H](O)[C@@H](CO)NC(=O)C(Cl)Cl)cc1`, which outcome [1] is on record?
**A.** Its outcome is “inactive; no positive results”.

**Q.** `O=[N+]([O-])OCC(CO[N+](=O)[O-])O[N+](=O)[O-]` was tested. Which Potency [3] did it give?
**A.** The Potency was 183 mg/kg/day.

**Q.** How did the Potency (TargetSites_Rat_Female: ear Zymbals gland, liver, mammary gland) turn out when `O=C(Nc1ccc2c(c1)Cc1ccccc1-2)C(F)(F)F` was run?
**A.** Its Potency is 1.62 mg/kg/day.

**Q.** Which outcome [1] does the source give for `C/C=C/C=C/C(=O)O` here?
**A.** The outcome was “inactive; no positive results”.

**Q.** With `CN(CCCO)N=O` as the compound, how does the Potency [5] read?
**A.** The Potency was 1.66 mg/kg/day.

**Q.** With `CC(=O)Nc1nc(NC(C)=O)nc(-c2ccc([N+](=O)[O-])o2)n1` as the compound, how does the Potency [4] read?
**A.** Its Potency is 14.1 mg/kg/day.

**Q.** How did the outcome [1] turn out when `FC(Cl)(Cl)Cl` was run?
**A.** Its outcome is “inactive; no positive results”.

**Q.** `Nc1ccc2ccccc2c1` was tested. Which Potency (TargetSites_Rat_Female: urinary bladder, TargetSites_Rat_BothSexes: no positive results) did it give?
**A.** The Potency was 61.6 mg/kg/day.

**Q.** For `CNC[C@H](O)c1cccc(O)c1`, which outcome [1] is on record?
**A.** The outcome was “inactive; no positive results”.

**Q.** How did the Potency (TD50_Rat_Note: TD50 is harmonic mean of more than one positive test, TargetSites_Rat_Female: pituitary gland, thyroid gland) turn out when `Nc1ncn[nH]1` was run?
**A.** The Potency was 9.94 mg/kg/day.
